Like-named read-outs stand apart in the source and are kept apart here.
How the values were obtained:
[1] = tested on: bone marrow derived macrophages (BMMφ); assay: Cytokine ELISA on supernatants of stimulated bone marrow derived macrophages (LPS ± E-IgG)
[2] = tested on: ERK1/2; assay: Western blot of ERK activation (phospho-ERK) in macrophages; type: cell-based, mice; settings: macrophages stimulated with LPS 10 ng/ml plus the agent, versus LPS alone
Protocol: FIG. 1 is a Western blot showing the kinetics of MAPK activation in bone marrow derived macrophages (BMMφ) stimulated with (LPS) alone or LPS in combination with E-IgG, an immune complex that ligates the FcγR. BMMφ were stimulated with LPS (10 ng/ml)±E-IgG. Cells were then lysed at the indicated times and equal amounts of whole cell lysates were separated by SDS PAGE and analyzed by Western blotting using phospho-specific Abs to ERK1/2, p38 or JNK. Total ERK1/2 (bottom panel) was used as the loading control.
Western blots. 2×10^6 BMMφper well were plated overnight in 60 mm culture dishes. […]
Cells were lysed at various indicated times and ERK activation was measured by Western Blot using antibodies to phosphorylated ERK (FIG. 9B).
ERK activation was analyzed at the indicated times by Western Blot, using antibodies to phosphorylated ERK.

[3] = tested on: IL-10 promoter; assay: ChIP of histone H3 phosphorylation at the IL-10 promoter in stimulated BMMφ; type: cell-based, mice; settings: BMMφ pretreated 30 min with PD98059 10 μM or SB203580 1 μM, then IgG-OVA + LPS for 40 min
Protocol: BMMφ were stimulated with medium (open bars), LPS (solid bars) or E-IgG+LPS (striped bars) for 15 minutes (A), or the indicated times (B) and ChIP assays were carried out as described in Materials and Methods. Immunoprecipitations utilized antibodies specific to phospho-H3 (left panel) or acetyl-H3 (right panel). A. conventional RT-PCR and B. real time PCR were carried out using IL-10 promoter or IL-12p40 promoter specific primers. For real time PCR, samples were normalized to input DNA controls.
Cells were pretreated with PD98059 (10 μM), SB203580 (1 μM) or medium for 30 min then stimulated with medium (open bar), IgG-OVA (dotted bar), LPS (solid bar), or both (striped bars) for 40 min. ChIP analysis was carried out using a phospho-H3 specific Ab. A. Conventional RT-PCR was carried out using IL-10 promoter or IL-12p40 promoter specific primers. B. Real time PCR analysis of samples obtained in A. Samples were normalized to input DNA controls.
FIG. 22 is a graph showing Inhibition of histone modifications by blocking ERK. BMMφ were pre-treated with PD98059 (15 μM) (solid bars) or drug vehicle (open bars) for 1 hour and then stimulated with IC plus LPS (10 ng/mL). Cross-linked chromatin fragments were immunoprecipitated with antibody to phosphorylated histone H3 at Ser 10 or antibody to Sp1. The DNA was purified and analyzed for the presence of IL-10 promoter sequences corresponding to nucleosome −2 by QRT-PCR. The data were plotted graphically as the percentage change relative to drug vehicle (IC/LPS) at 30 min post-stimulation for histone H3 phosphorylation, and at 45 min post-stimulation for Sp1 recruitment. One representative from two independent experiments is presented.
Chromatin immunoprecipitation (ChIP). ChIPs were carried out using the ChIP Assay kit following the manufacturer's protocol (Upstate USA, Inc., Lake Placid, N.Y.). Briefly, 1×10^6 BMMφ were plated overnight in 6-well plates. Cells were stimulated as described in Figure Legends then fixed for 10 min at 37° C. in paraformaldehyde (1% final concentration). […]

[4] = tested on: BMMφ; assay: Cytokine ELISA (IL-10, IL-12) after HDAC inhibitor treatment of BMMφ stimulated with LPS+IC; type: cell-based, mice; settings: TSA added to BMMφ for 1 hr, washed, then 10 ng/ml LPS+IC for 6 hrs
Protocol: FIG. 21 is a graph showing cytokine production following histone deacetylation. TSA was added to BMMφ for 1 hr and the cells were then washed with warmed medium before stimulation with 10 ng/ml LPS+IC. After LPS+IC stimulation for 6 hrs, the supernatants were collected and IL-10 and IL-12 were measured by ELISA. Results shown are one representative from two independent experiments conducted in triplicate (mean±SD).
To further examine histone acetylation, macrophages were treated with increasing doses of the HDAC inhibitor, TSA, prior to stimulation. IL-10 levels were measured 6 hrs later. […] This observation is consistent with the hypothesis that an increase in histone H3 acetylation was not a pre-requisite for IL-10 gene transcription following stimulation by LPS+IC.

Molecule: CCCCCCCCCCCCCC(=O)O[C@@H]1[C@@H](C)[C@@]2(O)[C@@H](C=C(CO)C[C@]3(O)C(=O)C(C)=C[C@@H]23)[C@@H]2C(C)(C)[C@]12OC(C)=O [PMA, phorbol 12-myristate 13-acetate]
- IL-10 production (ELISA) of LPS-stimulated macrophages in presence of the ERK activator [1]: induced
- ERK activation (phosphorylated ERK, Western blot) [2]: activated

Molecule: C[S+]([O-])c1ccc(-c2nc(-c3ccncc3)c(-c3ccc(F)cc3)[nH]2)cc1 (centres unmarked) [SB203580]
- histone H3 phosphorylation at the IL-10 promoter induced by immune complex (ChIP) [3]: decreasing it substantially, but not reducing it to background levels
- IL-10 secretion (ELISA) ([1]; BMMφ pretreated 30 min with PD98059 10 μM, SB203580 1 μM or JNK inhibitory peptide 1 μM, then LPS 10 ng/ml ± E-IgG, supernatants after 20 h): substantial inhibition
- IL-12 (p40) production (ELISA) ([1]; BMMφ pretreated 30 min with inhibitor, then LPS 10 ng/ml ± E-IgG, 20 h): Neither of these inhibitors decreased
- LPS-induced IL-10 production ([1]; BMMφ, LPS 10 ng/ml alone, 20 h, inhibitor pretreatment or 100 nM siRNA): prevented

Molecule: CC(/C=C/C(=O)NO)=C\[C@@H](C)C(=O)c1ccc(N(C)C)cc1 [TSA, Trichostatin A]
- IL-10 production (ELISA) [4]: failed to influence
- IL-12 production (ELISA) [4]: substantially inhibit

B1: CSF-1: colony stimulating factor-1, an ERK activating agent identified by the screening method (protein, UniProt P09603 33-554, looked up)
Macrophage colony-stimulating …: EEVSEYCSHMIGSGHLQSLQRLIDSQMETSCQITFEFVDQEQLKDPVCYLKKAFLLVQDIMEDTMRFRDNTPNAIAIVQLQELSLRLKSCFTKDYEEHDKACVRTFYETPLQLLEKVKNVFNETKNLLDKDWNIFSKNCNNSFAECSSQDVVTKPDCNCLYPKAIPSSDPASVSPHQPLAPSMAPVAGLTWEDSEGTEGSSLLPGEQPLHTVDPGSAKQRPPRSTCQSFEPPETPVVKDSTIGGSPQPRPSVGAFNPGMEDILDSAMGTNWVPEEASGEASEIPVPQGTELSPSRPGGGSMQTEPARPSNFLSASSPLPASAKGQQPADVTGTALPRVGPVRPTGQDWNHTPQKTDHPSALLRDPPEPGSPRISSLRPQGLSNPSTLSAQPQLSRSHSSGSVLPLGELEGRRSTRDRRSPAEPEGGPASEGAARPLPRFNSVPLTDTGHERQSEGSFSPQLQESVFHLLVPSVILVLLAVGGLLFYRWRRRSHQEPQRADSPLEQPEGSPLTQDDRQVELPV
- IL-10 production (ELISA) of LPS-stimulated macrophages in presence of the ERK activator ([1]; LPS plus agent versus LPS alone, CSF-1 100 ng/ml added simultaneously with LPS, IL-10 measured 20 hrs later): induce more IL-10
- IL-10 induction by the agent on its own ([1]; macrophages without inflammatory stimulus): does not induce IL-10 on its own
- ERK activation (phosphorylated ERK, Western blot) [2]: activated

— patent publication US7524487B2, “Compositions and methods for modulating interleukin-10” (University of Maryland, priority 2005, dated 2009)
